Laboratory results: patent US8309768B2, “FTY720-derived anticancer agents” (The Ohio State University Research Foundation, priority 2010, dated 2012)

Key:
[1] = system: lymphocytes in peripheral blood; assay: In vivo evaluation of T-lymphocyte homing; details: CD2F1 mice, i.p., 6 h
Method: In vivo evaluation of T-lymphocyte homing. […] Six hours later, animals were sacrificed, and peripheral blood mononuclear cells were prepared as described. Dragun et al., Kidney Int 65, 1076-1083 (2004). Cells were stained with FITC-labeled rat anti-mouse CD3 molecular complex and PE-labeled rat anti-mouse CD45RA (4° C., in darkness, 30 min), and analyzed by flow cytometry.

[2] = system: Hep3B, Huh7, and PLC5 cells; assay: ROS production by flow cytometry with DCFDA; assay type: cell-based; details: 1 h of treatment
Method: Flow cytometry. For assessment of apoptosis, treated cells were stained with Annexin V-Alexa Fluor 488 and propidium iodide according to the vendor's protocols (Molecular Probes). For caspase-3 activity, cells were incubated with the fluorogenic caspase-3 substrate (Ac-DMQD)-2-Rh110 for 20 min. ROS production was detected using the fluorescence probe 5-(and-6)-carboxy-2′,7′-dichlorodihydrofluorescein diacetate (DCFDA) as described. Hung et al., Cancer Res., 68, 1204-1212 (2008). Data were analyzed by ModFitLT V3.0 software program.

Q: What does the source list for `CCC[C@@](N)(CO)CCc1ccc(OCCCCCC(C)C)cc1` [OSU-2S, (S)-2-amino-2-(4-[(6-methylheptyl)-oxy]phenethyl)pentan-1-ol]?
A: effect on number of T lymphocytes in peripheral blood ([1]; 5 mg/kg): modest decrease; effect on number of T lymphocytes in peripheral blood ([1]; 1 and 2 mg/kg): no appreciable effect; changes in circulating B lymphocytes [1]: no comparable changes; ROS production [2]: to a greater extent than FTY720
